Results: PubChem BioAssay AID1996
Values after ≈ are worked out from the molar mass of the structure shown. Values joined by “and” are separate entries in the source; they are usually repeats but may differ in a detail not shown here. Equal values may be shown once.

conditions: buffer; pH 7.4; 200.0 µM

Compound | solubility kinetic
CCCCOc1ccc(-c2ncc([N+](=O)[O-])cn2)cc1 | < 0.2 µg/mL
O=C(OCC(=O)N1CCCCC1)c1cc(S(=O)(=O)N2CCOCC2)c(Cl)cc1Cl | 67.7 µg/mL (≈ 145 µM)
S=C(Nc1cccnc1)Nc1ccccn1 | > 34.5 µg/mL
COc1cccc(C(=O)NC2CC3CCC(C2)N3Cc2ccccc2)c1 (configuration not stated) | 52.2 µg/mL (≈ 149 µM)
CCCOc1ccc(/C=N/NC(=O)CN2CCCCC2)cc1 | > 45.5 µg/mL
O=C(c1ccc(N2CCOCC2)c([N+](=O)[O-])c1)N1CCCCC1 | > 47.9 µg/mL
C=CCC(=O)N1CCCC(C(=O)c2ccc(Cl)cc2)C1 (configuration not stated) | 42.5 µg/mL (≈ 146 µM)
O=C(NC1=NCCS1)c1ccccc1OCc1ccc(F)cc1 | < 0.4 µg/mL
CC(C)(C)NC(=O)C1c2ccccc2Oc2ccccc21 | 1.7 µg/mL (≈ 6.04 µM)
O=c1[nH]c(N2CCCCCC2)nc2ncn(Cc3ccccc3)c12 | 13 µg/mL (≈ 40.2 µM)
CCCNC(=O)C12CCC(C)(c3nc4cc(C)c(C)cc4nc31)C2(C)C (configuration not stated) | 32.2 µg/mL (≈ 91.6 µM)
CC(=O)c1cccc(Nc2cc(C)nc3ccc(C)cc23)c1.Cl | 46.9 µg/mL
Cc1ccc(NC(=O)CN2CCCC2)cc1.Cl | > 38.2 µg/mL
CC(=O)c1ccc(OCC(=O)NC(=O)NC2CCCCC2)cc1 | 9.3 µg/mL (≈ 29.2 µM)
CSc1ccc(S(=O)(=O)N2CC(=O)Nc3ccccc32)cc1 | 14.4 µg/mL (≈ 43.1 µM)
Cc1c(NC(=O)c2cc(S(=O)(=O)N3CCCCC3)ccc2Cl)c(=O)n(-c2ccccc2)n1C | > 73.3 µg/mL
CC(C)(C)N(Cc1ccccc1)C(=O)COC(=O)c1ccc(N2CCCC2=O)cc1 | 2.5 µg/mL (≈ 6.12 µM)
COc1cc(SC)ccc1C(=O)OCC(=O)NC(=O)NC(C)C | 10.9 µg/mL (≈ 32 µM)
COC(=O)CC(c1ccc(F)cc1)n1c(C)ccc1C (configuration not stated) | 15.7 µg/mL (≈ 57 µM)
NC(=O)c1ccc(C2SCC(=O)N2CCc2ccccc2)cc1 (configuration not stated) | > 49 µg/mL
Cc1nccn1CC(=O)N/N=C/c1ccccc1O | > 38.7 µg/mL
COc1ccccc1-n1cnc2cc(NCc3ccccc3O)ccc21 | 12.6 µg/mL (≈ 36.5 µM)
COc1ccc(C)cc1NC(=O)C(=O)N1CCCC1 | 39.1 µg/mL (≈ 149 µM)
CCC(C)Nc1nc(N)c([N+](=O)[O-])c(NCCO)n1 (configuration not stated) | 39.6 µg/mL (≈ 147 µM)
Cc1cnc(C(=O)OCC(=O)c2cccc3ccccc23)cn1 | 36.1 µg/mL (≈ 118 µM)
CCC1CCCCN1Cc1c(O)ccc2c(=O)c(-c3ccccc3)coc12 (configuration not stated) | 50.1 µg/mL (≈ 138 µM)

Compound | solubility kinetic
Cc1ccc(Nc2nc(N)c3ccccc3n2)cc1C.Cl | 5.9 µg/mL
CC1Cc2ccccc2N1C(=O)COC(=O)c1ccc(O)cc1 (configuration not stated) | 5.1 µg/mL (≈ 16.4 µM)
Cc1ccc(NCCC(=O)c2ccccc2)cc1Cl | < 0.6 µg/mL
CC(NC(=O)CN1CCN(c2cccc(Cl)c2)CC1)c1ccccc1 (configuration not stated) | 42.4 µg/mL (≈ 118 µM)
CCOc1ccc(Br)cc1S(=O)(=O)NC1=NCCCCC1 | > 56.3 µg/mL
COC(=O)c1sccc1NC(=S)Nc1ccc(F)cc1F | 42 µg/mL (≈ 128 µM)
CCOc1ccc(Nc2nc3c(C)cccc3cc2C#N)cc1 | < 0.2 µg/mL
Cn1c(=O)c(C=Nc2ccccc2)c(O)c2ccccc21 | 11.2 µg/mL (≈ 40.2 µM)
Cc1ccsc1C1C(C#N)=C(N)OC2=C1C(=O)CC(C)(C)C2 (configuration not stated) | > 47.2 µg/mL
Cc1csc(NC(=O)CSc2ccc([N+](=O)[O-])cn2)n1 | 33.8 µg/mL (≈ 109 µM)
CN(C(=O)COC(=O)c1cn(C)c2ccccc12)C1CCCCC1 | > 49.3 µg/mL
Fc1ccc2nc(C(F)(F)F)cc(N3CCOCC3)c2c1 | 11.3 µg/mL (≈ 37.6 µM)
Cc1ccccc1NC(=O)COc1ccccc1C | 2.1 µg/mL (≈ 8.23 µM)
COc1ccccc1C(=O)COC(=O)CN1C(=O)c2ccccc2C1=O | 6.4 µg/mL (≈ 18.1 µM)
CC(NC(=O)CCNC(=O)c1ccco1)c1ccccc1 (configuration not stated) | > 42.9 µg/mL
CCOC(=O)c1cn2nc(Oc3cccc(F)c3)ccc2n1 | > 45.2 µg/mL
O=C(Nc1ccc(NC(=O)c2cccs2)cc1)c1ccccc1 | < 0.3 µg/mL
CCc1cc(=O)[nH]c(SCC(=O)NCC2CCCO2)n1 (configuration not stated) | > 44.6 µg/mL
NC(CO)(CO)CO.O=C(c1ccccc1)c1ccc2n1CCC2C(=O)O (configuration not stated) | > 56.5 µg/mL
O=[N+]([O-])c1ccccc1/C=C/CN1CCCCC1CO (configuration not stated) | 34.3 µg/mL (≈ 124 µM)
Clc1cccc(CNCC2CCCO2)c1Cl (configuration not stated) | 33.3 µg/mL (≈ 128 µM)
CCc1cc(SC#N)cc(C)c1N | 25.6 µg/mL (≈ 133 µM)
Cl.O=C(NC12CC3CC(CC(C3)C1)C2)OCCNC1CCCCC1 | > 53.5 µg/mL
COc1cc(-c2noc(C)n2)cc(OC)c1OC | 35.7 µg/mL (≈ 143 µM)
CC(=O)c1c(C)[nH]c(C(=O)N2CC(C)CC(C)C2)c1C (configuration not stated) | > 41.5 µg/mL

Further lines, results first:

solubility kinetic | Compound
> 57.2 µg/mL | COc1ccc(N2CCN(c3ccc(NC(=O)/C=C\C(=O)O)cc3)CC2)cc1
2.9 µg/mL (≈ 10.5 µM) | Cc1cc(NC(=O)COc2cccc([N+](=O)[O-])c2)no1
< 0.3 µg/mL | CC(C)c1ccc(CN2C(=O)NC3(CCCCCC3)C2=O)cc1
> 55.2 µg/mL | O=C(NCC(c1ccco1)N1CCCCC1)c1cnc(Cl)c(Cl)c1 (configuration not stated)
37.2 µg/mL (≈ 137 µM) | CSc1ncccc1C(=O)NCCc1ccccc1
> 55.1 µg/mL | CCn1c(CCC(=O)O)nc2cc(S(=O)(=O)N3CCOCC3)ccc21
2.3 µg/mL (≈ 7.68 µM) | COc1ccc(C)cc1Nc1nc(C)nc2sc(C)cc12
32.4 µg/mL (≈ 109 µM) | COc1ccc(C(=O)N2CCCc3ccccc32)cc1OC
> 41.1 µg/mL | C=CCn1c(P(C)(=O)[O-])nc2ccccc21.[K+]
0.6 µg/mL (≈ 2.03 µM) | c1ccc(-c2nc(-c3ccc(-c4ccon4)s3)no2)cc1
< 0.3 µg/mL | Cc1ccc(S(=O)(=O)N2CCN(c3ccccc3)CC2)cc1
> 48.9 µg/mL | COc1ccc(OCC(=O)NCCCn2ccnc2)cc1.Cl
40 µg/mL (≈ 127 µM) | O=C(Cn1cnc2ccccc21)c1ccc(Br)cc1
45.3 µg/mL (≈ 150 µM) | Cc1cnc(C(=O)OCc2nc3ccsc3c(=O)[nH]2)cn1
0.4 µg/mL (≈ 1.11 µM) | O=c1cc(-c2ccccc2)nc(SCCOc2ccccc2Cl)[nH]1
8.6 µg/mL (≈ 31.3 µM) | CC(Sc1ccc2ccccc2c1)C(=O)NC(N)=O (configuration not stated)
> 52 µg/mL | COc1ccccc1NC(=O)c1ccc2c(c1)CCN2S(C)(=O)=O
0.7 µg/mL (≈ 2.18 µM) | COc1ccc(Nc2oc(-c3ccc(OC)cc3)nc2C#N)cc1

solubility kinetic | Compound
45.8 µg/mL and > 47.1 µg/mL | CNCCCC12CCC(c3ccccc31)c1ccccc12.Cl
> 38 µg/mL | CCC(=O)c1c(NC(CC)CO)cc(C)oc1=O (configuration not stated)
> 26.4 µg/mL | CCn1c(C)cc(C)c(C#N)c1=O
31.4 µg/mL (≈ 130 µM) | O=C(Nc1ccc2c(c1)OCO2)c1ccccn1
> 51.9 µg/mL | CCCn1c(=N)n(CC(O)c2ccc(C)cc2)c2ccccc21.Cl (configuration not stated)
45.3 µg/mL (≈ 130 µM) | COCCn1c(C)cc(C(=O)CSc2nc(C)c(C)c(C)n2)c1C
> 54.3 µg/mL | Cc1ccc(C(=O)NCCCNC(=O)COc2ccccc2Cl)cn1
29.3 µg/mL (≈ 110 µM) | O=C(CCCc1ccccc1)NCCc1ccccc1
0.6 µg/mL (≈ 1.71 µM) | Cc1ccc(C(=O)Nc2cccc(NC(=O)c3cccs3)c2)c(C)c1
< 0.3 µg/mL | CCOc1ccccc1NC(=O)NC1Cc2ccccc2C1
26.3 µg/mL (≈ 92.8 µM) | O=C(Oc1ccccc1N1CCOCC1)c1ccccc1
7.4 µg/mL (≈ 27.1 µM) | Cc1c(C)n(-c2ccc(Cl)cc2)c2ncnc(N)c12
29.6 µg/mL (≈ 106 µM) | CC(C)CCN1CCN(Cc2ccoc2)CC1CCO (configuration not stated)
5.8 µg/mL (≈ 14.3 µM) | O=C(Nc1ccc(Br)cc1)c1cc(-c2ccncc2)nc2ccccc12
> 34.7 µg/mL | O=C(N/N=C/c1cccs1)c1cccnc1
> 40 µg/mL | Cl.OCCNCc1cccc(Br)c1
39.4 µg/mL (≈ 109 µM) | COc1cc(C(=O)NCCNC(=O)c2cnccn2)cc(OC)c1OC
19.5 µg/mL (≈ 80.2 µM) | O=C(Nc1ccc2c(c1)OCO2)c1cnccn1
